From US8865894B2, “Oxazolidin-2-one compounds and uses thereof” (Novartis AG, priority 2012, dated 2014)

Biological target: T1, human PI3Kδ (Homo sapiens, UniProt O00329)
T1 construct: made in house
T1 sequence (O00329 2-1044 limits assumed): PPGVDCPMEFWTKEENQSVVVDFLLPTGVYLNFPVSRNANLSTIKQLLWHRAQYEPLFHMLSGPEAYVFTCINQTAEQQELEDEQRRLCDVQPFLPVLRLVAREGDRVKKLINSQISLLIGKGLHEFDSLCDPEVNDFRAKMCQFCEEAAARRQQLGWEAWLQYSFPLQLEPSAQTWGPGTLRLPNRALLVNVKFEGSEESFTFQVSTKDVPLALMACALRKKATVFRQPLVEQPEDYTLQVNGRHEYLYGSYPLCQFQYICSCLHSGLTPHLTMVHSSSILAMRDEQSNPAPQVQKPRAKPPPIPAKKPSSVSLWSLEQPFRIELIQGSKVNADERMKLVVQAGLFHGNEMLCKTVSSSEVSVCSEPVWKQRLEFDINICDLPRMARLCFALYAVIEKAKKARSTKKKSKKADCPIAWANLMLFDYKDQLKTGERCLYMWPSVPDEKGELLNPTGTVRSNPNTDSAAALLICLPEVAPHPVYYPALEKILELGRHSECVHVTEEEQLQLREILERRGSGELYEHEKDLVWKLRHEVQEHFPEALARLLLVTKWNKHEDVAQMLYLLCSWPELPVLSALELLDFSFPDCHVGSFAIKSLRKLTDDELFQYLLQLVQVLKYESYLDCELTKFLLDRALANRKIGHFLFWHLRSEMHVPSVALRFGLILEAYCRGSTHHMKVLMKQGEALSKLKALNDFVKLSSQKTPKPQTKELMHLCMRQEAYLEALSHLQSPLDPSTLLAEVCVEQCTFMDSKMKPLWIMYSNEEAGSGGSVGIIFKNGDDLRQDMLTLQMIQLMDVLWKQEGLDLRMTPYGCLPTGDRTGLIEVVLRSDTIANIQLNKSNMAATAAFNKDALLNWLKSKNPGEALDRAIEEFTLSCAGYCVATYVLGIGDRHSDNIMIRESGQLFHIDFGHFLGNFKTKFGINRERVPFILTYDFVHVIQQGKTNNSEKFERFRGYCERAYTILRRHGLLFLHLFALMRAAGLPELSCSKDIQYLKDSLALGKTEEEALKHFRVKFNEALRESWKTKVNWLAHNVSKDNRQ
Assay: Biochemical PI3Kdelta (TR-FRET Adapta Universal Kinase Assay)
Conditions: mean of n measurements, read-out: PIK3d/ IC50
Method: Test compounds were dissolved in DMSO (10 mM) and transferred into 1.4 mL flat bottom or V-shaped Matrix tubes carrying a unique 2D matrix chip by individual Novartis compound hubs. The numbers of these chips were distinctively linked to Novartis Pharma Numbers. The stock solutions were stored at −20° C. if not used immediately. For the test procedure the vials were defrosted and identified by a scanner whereby a working sheet was generated that guided the subsequent working steps.
Compounds were either manually diluted in DMSO for individual experiments (96 wells enabling 10 cpds at 8 (single points) concentrations) as described in or prepared as described below if tested for profiling in 384-wells. This format enabled the assay of maximally 40 individual test compounds at 8 concentrations (single points) including 4 reference compounds. The dilution protocol included the production of “pre-dilution plates”, “master plates” and “assay plates”.
96 polypropylene well plates were used as pre-dilution plates. A total of 4 pre-dilution plates were prepared including 10 test compounds each on the plate positions A1-A10, one standard compound at A11 and one DMSO control at A12. Programs have been written to run these pipetting steps on the HamiltonSTAR robots.
Identical “assay plates” were then prepared by pipetting 50 nL each of compound dilutions of the “master plates” into 384-well “assay plates”. The compounds were mixed with 4.5 μL of assays components plus 4.5 μL enzyme corresponding to a 1:181 dilution enabling the final concentration of 10, 3.0, 1.0, 0.3, 0.1, 0.03, 0.01 and 0.003 μM, respectively. The preparation of the “master plates” was handled by the Matrix PlateMate Plus robot and replication of “assay plates” by the HummingBird robot.
Catalytically active human PI3Kα, PI3Kβ, PI3Kδ, and mTOR were cloned, expressed and purified as described (Maira S M, Stauffer F, Brueggen J, Furet P, Schnell C, Fritsch C, Brachmann S, Chène P, de Pover A, Schoemaker K, Fabbro D, Gabriel D, Simonen M, Murphy L, Finan P, Sellers W, García-Echeverría C (2008), Mol Cancer Ther. 7:1851-63 and Maira S M, Pecchi S, Brueggen J, Huh K, Schnell C, Fritsch C, Nagel T, Wiesmann M, Brachmann S, Dorsch M, Chène P, Schoemaker K, De Pover A, Menezes D, Fabbro D, Sellers W, García-Echeverría C, Voliva C F (2011), Mol. Cancer Ther. accepted).
The TR-FRET Adapta™ Universal Kinase Assay Kit was purchased from Invitrogen Corporation (Carlsbad/CA, USA) (Cat. No. PV5099). The kit contains the following reagents: Adapta Eu-anti-ADP Antibody (Europium labeled anti-ADP antibody in HEPES buffered saline, Cat. No. PV5097), Alexa Fluor® 647-labeled ADP tracer (Alexa Fluor® 647-labeled ADP tracer in HEPES buffered saline, Cat. No. PV5098), proprietary TR-FRET dilution buffer pH 7.5 (Cat. No. PV3574).
PIK3CD substrate Phosphatidylinositol was obtained from Invitrogen (vesicules consisting of 2 mM PI in 50 mM HEPES pH7.5; Cat. No. PV5371). PIK3CG substrate Phosphatidylinositol-4,5-bisphosphate (PIP(4,5)2 was obtained from Invitrogen (PIP2:PS large unilamellar vesicules consisting of 1 mM PIP2: 19 mM PS in 50 mM HEPES pH7.5, 3 mM MgCl2, 1 mM EGTA; Cat. No. PV5100).
Time-Resolved Fluorescence Resonance Energy Transfer (TR-FRET) is a technology based on energy transfer between two adjacent dyes, from an excited electron in one dye (the donor) to an electron of an adjacent dye (the acceptor) through resonance, then released as a photon. This energy transfer is detected by an increase in the fluorescence emission of the acceptor, and a decrease in the fluorescence emission of the donor. TR-FRET assays for protein kinases use a long-lifetime lanthanide Terbium or Europium chelates as the donor species which overcome interference from compound autofluorescence or light scatter from precipitated compounds, by introducing a delay after excitation by a flashlamp excitation source. Results are often expressed as a ratio of the intensities of the acceptor and donor fluorophores.

Compound	IC50 [nM]
C[C@H]1OC(=O)N(c2cc(-c3cnc(N)nc3C(F)(F)F)nc(N3CCOCC3)n2)[C@H]1COC=O [Example 12, Formic acid (4S,5R)-3-(2′-amino-2-morpholin-4-yl-4′-trifluoromethyl-[4,5′]bipyrimidinyl-6-yl)-5-methyl-2-oxo-oxazolidin-4-ylmethyl ester]	59
Nc1ncc(-c2cc(N3C(=O)OC4C(O)CCC43)nc(N3CCOCC3)n2)c(C(F)(F)F)n1 (single isomer, unassigned) [Example 22B]	5
C[C@H]1C(CC(C)(C)O)OC(=O)N1c1cc(-c2cnc(N)nc2C(F)(F)F)nc(N2CCOCC2)n1 (mixture of isomers) [Example 26, (4S,5R)- and (4S,5S)-3-(2′-amino-2-morpholino-4′-(trifluoromethyl)-[4,5′-bipyrimidin]-6-yl)-5-(2-hydroxy-2-methylpropyl)-4-methyloxazolidin-2-one]	12
C[C@H]1OC(=O)N(c2cc(-c3cnc(N)nc3C(F)(F)F)nc(N3CCOCC3)n2)[C@H]1CO [Example 18, (4S,5R)-3-(2′-Amino-2-morpholin-4-yl-4′-trifluoromethyl-[4,5′]bipyrimidinyl-6-yl)-4-hydroxymethyl-5-methyl-oxazolidin-2-one]	8
Nc1ncc(-c2cc(N3C(=O)O[C@H]4COC[C@H]43)nc(N3CCOCC3)n2)c(C(F)(F)F)n1 [Example 21, (3aR,6aR)-3-(2′-amino-2-morpholino-4′-(trifluoromethyl)-[4,5′-bipyrimidin]-6-yl)-tetrahydrofuro[3,4-d]oxazol-2(3H)-one]	17
C[C@H]1CN(c2cc(-c3cnc(N)nc3C(F)(F)F)nc(N3CCOCC3)n2)C(=O)O1 [Example 16, (S)-3-(2′-Amino-2-morpholin-4-yl-4′-trifluoromethyl-[4,5′]bipyrimidinyl-6-yl)-5-methyl-oxazolidin-2-one]	21
Nc1ncc(-c2cc(N3C(=O)O[C@H]4CCCC[C@@H]43)nc(N3CCOCC3)n2)c(C(F)(F)F)n1 [Example 4, (3aS,7aS)-3-(2′-Amino-2-morpholin-4-yl-4′-trifluoromethyl-[4,5′]bipyrimidinyl-6-yl)-hexahydro-benzooxazol-2-one]	4
CC1(CO)COC(=O)N1c1cc(-c2cnc(N)nc2C(F)(F)F)nc(N2CCOCC2)n1 (racemic) [Example 3, 3-(2′-amino-2-morpholino-4′-(trifluoromethyl)-4,5′-bipyrimidin-6-yl)-4-(hydroxymethyl)-4-methyloxazolidin-2-one]	12
C[C@H]1[C@@H](CO)OC(=O)N1c1cc(-c2cnc(N)nc2C(F)(F)F)nc(N2CCOCC2)n1 [Example 19, (4S,5S)-3-(2′-Amino-2-morpholin-4-yl-4′-trifluoromethyl-[4,5′]bipyrimidinyl-6-yl)-5-hydroxymethyl-4-methyl-oxazolidin-2-one]	9

Results, then the compound that gave them:

IC50 [nM]	Compound
7	C[C@H]1COC(=O)N1c1cc(-c2cnc(N)nc2C(F)(F)F)nc(N2CCOCC2)n1 [Example 1, (S)-3-(2′-Amino-2-morpholin-4-yl-4′-trifluoromethyl-[4,5′]bipyrimidinyl-6-yl)-4-methyl-oxazolidin-2-one]
75	CC1(C)OC(=O)N(c2cc(-c3cnc(N)nc3C(F)(F)F)nc(N3CCOCC3)n2)[C@H]1CO [Example 2, (S)-3-(2′-Amino-2-morpholin-4-yl-4′-trifluoromethyl-[4,5′]bipyrimidinyl-6-yl)-4-hydroxymethyl-5,5-dimethyl-oxazolidin-2-one]
21	[2H]C1([2H])OC([2H])([2H])C([2H])([2H])N(c2nc(-c3cnc(N)nc3C(F)(F)F)cc(N3C(=O)O[C@H](C)[C@@H]3CO)n2)C1([2H])[2H] [Example 8]
17	Nc1ncc(-c2cc(N3C[C@@H](CO)OC3=O)nc(N3CCOCC3)n2)c(C(F)(F)F)n1 [Example 14, (S)-3-(2′-Amino-2-morpholin-4-yl-4′-trifluoromethyl-[4,5′]bipyrimidinyl-6-yl)-5-hydroxymethyl-oxazolidin-2-one]
8	[2H]C1([2H])OC([2H])([2H])C([2H])([2H])N(c2nc(-c3cnc(N)nc3C(F)(F)F)cc(N3C(=O)OC[C@@H]3C)n2)C1([2H])[2H] [Example 17, (S)-3-(2′-amino-2-D8-morpholino-4′-(trifluoromethyl)-[4,5′-bipyrimidin]-6-yl)-4-methyloxazolidin-2-one]
29	Nc1ncc(-c2cc(N3CCOC3=O)nc(N3CCOCC3)n2)c(C(F)(F)F)n1 [Example 11, 3-(2′-Amino-2-morpholin-4-yl-4′-trifluoromethyl-[4,5′]bipyrimidinyl-6-yl)-oxazolidin-2-one, reference compound]
11	C[C@@H]1OC(=O)N(c2cc(-c3cnc(N)nc3C(F)(F)F)nc(N3CCOCC3)n2)[C@H]1CO [Example 6]
9	C[C@H]1[C@@H](CCO)OC(=O)N1c1cc(-c2cnc(N)nc2C(F)(F)F)nc(N2CCOCC2)n1 [Example 23, (4S,5R)-3-(2′-Amino-2-morpholino-4′-(trifluoromethyl)-[4,5′-bipyrimidin]-6-yl)-5-(2-hydroxyethyl)-4-methyloxazolidin-2-one]
4	Nc1ncc(-c2cc(N3C(=O)OC4C(O)CCC43)nc(N3CCOCC3)n2)c(C(F)(F)F)n1 (single isomer, unassigned) [Example 22A]
9	C[C@@H](O)C[C@H]1OC(=O)N(c2cc(-c3cnc(N)nc3C(F)(F)F)nc(N3CCOCC3)n2)[C@H]1C (single isomer, unassigned) [Example 24]
7	C[C@H](O)CC1OC(=O)N(c2cc(-c3cnc(N)nc3C(F)(F)F)nc(N3CCOCC3)n2)[C@H]1C (single isomer, unassigned) [Example 25]
15	C[C@H]1[C@H](CO)OC(=O)N1c1cc(-c2cnc(N)nc2C(F)(F)F)nc(N2CCOCC2)n1 [Example 15, (4S,5R)-3-(2′-Amino-2-morpholin-4-yl-4′-trifluoromethyl-[4,5′]bipyrimidinyl-6-yl)-5-hydroxymethyl-4-methyl-oxazolidin-2-one]
